Experimental data as given in PMC6979384, “Characterization of the plant homeodomain (PHD) reader family for their histone tail interactions” (Epigenetics & Chromatin, 2020).
Each block holds one substance with its values, some of them ahead of it.

Experiments:
Experiment in all cases: Histone peptide microarray
Type in all cases: binding, human
PHF8 = conditions: for Array Heatmap value (peptide array signal): PHF8, sheet "Array Heatmap", each array performed twice, total n = 4
How it was run: (§1)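 Histone peptide library (293 synthetic peptides, single/combinatorial PTMs) arrayed and probed with 0.5 μM purified GST-PHD domain; optimized protocol; quadruplicate mean and SD reported.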

ING1 = conditions: for Array Heatmap value (peptide array signal): ING1, sheet "Array Heatmap", each array performed twice, total n = 4
How it was run: as §1

KDM5B (1) = conditions: KDM5B (1); for Array Heatmap value (peptide array signal): sheet "Array Heatmap", each array performed twice, total n = 4
How it was run: as §1

CHD4 (PPCC) = conditions: CHD4 (PPCC); for Array Heatmap value (peptide array signal): sheet "Array Heatmap", each array performed twice, total n = 4
How it was run: as §1

PHF21A = conditions: PHF21A; for Array Heatmap value (peptide array signal): sheet "Array Heatmap", each array performed twice, total n = 4
How it was run: as §1

KDM4C (TTP) = conditions: KDM4C (TTP); for Array Heatmap value (peptide array signal): sheet "Array Heatmap", each array performed twice, total n = 4
How it was run: as §1

SP140L = conditions: SP140L; for Array Heatmap value (peptide array signal): sheet "Array Heatmap", each array performed twice, total n = 4
How it was run: as §1

MLL5 = conditions: for Array Heatmap value (peptide array signal): MLL5, sheet "Array Heatmap", each array performed twice, total n = 4
How it was run: as §1

PHRF1 (RP) = conditions: PHRF1 (RP); for Array Heatmap value (peptide array signal): sheet "Array Heatmap", each array performed twice, total n = 4
How it was run: as §1

KDM7A = conditions: KDM7A; for Array Heatmap value (peptide array signal): sheet "Array Heatmap", each array performed twice, total n = 4
How it was run: as §1

PHF2 = conditions: for Array Heatmap value (peptide array signal): PHF2, sheet "Array Heatmap", each array performed twice, total n = 4
How it was run: as §1

DIDO1 = conditions: for Array Heatmap value (peptide array signal): DIDO1, sheet "Array Heatmap", each array performed twice, total n = 4
How it was run: as §1

KDM5A (1) = conditions: KDM5A (1); for Array Heatmap value (peptide array signal): sheet "Array Heatmap", each array performed twice, total n = 4
How it was run: as §1

ING4 = conditions: for Array Heatmap value (peptide array signal): ING4, sheet "Array Heatmap", each array performed twice, total n = 4
How it was run: as §1

BAZ2B = conditions: BAZ2B; for Array Heatmap value (peptide array signal): sheet "Array Heatmap", each array performed twice, total n = 4
How it was run: as §1

ING3 = conditions: for Array Heatmap value (peptide array signal): ING3, sheet "Array Heatmap", each array performed twice, total n = 4
How it was run: as §1

TRIM66 (PB) = conditions: TRIM66 (PB); for Array Heatmap value (peptide array signal): sheet "Array Heatmap", each array performed twice, total n = 4
How it was run: as §1

KDM5B (3) = conditions: KDM5B (3); for Array Heatmap value (peptide array signal): sheet "Array Heatmap", each array performed twice, total n = 4
How it was run: as §1

KDM5A (3) = conditions: KDM5A (3); for Array Heatmap value (peptide array signal): sheet "Array Heatmap", each array performed twice, total n = 4
How it was run: as §1

AIRE (PP) = conditions: AIRE (PP); for Array Heatmap value (peptide array signal): sheet "Array Heatmap", each array performed twice, total n = 4
How it was run: as §1

CHD5 (PCC) = conditions: CHD5 (PCC); for Array Heatmap value (peptide array signal): sheet "Array Heatmap", each array performed twice, total n = 4
How it was run: as §1

MORC3 (CW) = conditions: MORC3 (CW); for Array Heatmap value (peptide array signal): sheet "Array Heatmap", each array performed twice, total n = 4
How it was run: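 A peptide microarray holding 293 synthetic histone peptides with individual or combinatorial modifications was probed with each GST-PHD protein at 0.5 μM. Values represent mean intensity (±SD) from four replicates.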

PHF23 = conditions: for Array Heatmap value (peptide array signal): PHF23, sheet "Array Heatmap", each array performed twice, total n = 4
How it was run: as §1

BPTF (PB) = conditions: BPTF (PB); for Array Heatmap value (peptide array signal): sheet "Array Heatmap", each array performed twice, total n = 4
How it was run: as §1

PHF13 = conditions: for Array Heatmap value (peptide array signal): PHF13, sheet "Array Heatmap", each array performed twice, total n = 4
How it was run: as §1

DPF2 (PPC2W2) = conditions: DPF2 (PPC2W2); for Array Heatmap value (peptide array signal): sheet "Array Heatmap", each array performed twice, total n = 4
How it was run: as §1

RAG2 = conditions: for Array Heatmap value (peptide array signal): RAG2, sheet "Array Heatmap", each array performed twice, total n = 4
How it was run: as §1

ING2 = conditions: for Array Heatmap value (peptide array signal): ING2, sheet "Array Heatmap", each array performed twice, total n = 4
How it was run: as §1

ING5 = conditions: for Array Heatmap value (peptide array signal): ING5, sheet "Array Heatmap", each array performed twice, total n = 4
How it was run: as §1

TAF3 = conditions: for Array Heatmap value (peptide array signal): TAF3, sheet "Array Heatmap", each array performed twice, total n = 4
How it was run: as §1

CHD5 (PPCC) = conditions: CHD5 (PPCC); for Array Heatmap value (peptide array signal): sheet "Array Heatmap", each array performed twice, total n = 4
How it was run: as §1

[1] = GST-tagged, arrays performed twice, n of 4

Substance: H4K5crK8crK12cr: H4 1-23
Array Heatmap value (peptide array signal) (PHF8): 0.292 | Array Heatmap value (peptide array signal) (ING1): 0.4798 | Array Heatmap value (peptide array signal) (KDM5B (1)): 0.5237 | Array Heatmap value (peptide array signal) (CHD4 (PPCC)): 0.5037 | Array Heatmap value (peptide array signal) (PHF21A): 0.3861 | Array Heatmap value (peptide array signal) (KDM4C (TTP)): 0.3678 | Array Heatmap value (peptide array signal) (SP140L): 0.3203 | Array Heatmap value (peptide array signal) (MLL5): 0.4572 | Array Heatmap value (peptide array signal) (PHRF1 (RP)): 0.3292 | Array Heatmap value (peptide array signal) (KDM7A): 0.2744 | Array Heatmap value (peptide array signal) (PHF2): 0.4485 | Array Heatmap value (peptide array signal) (DIDO1): 0.571 | Array Heatmap value (peptide array signal) (KDM5A (1)): 0.3568 | Array Heatmap value (peptide array signal) (ING4): 0.3713 | Array Heatmap value (peptide array signal) (BAZ2B): 0.3353 | Array Heatmap value (peptide array signal) (ING3): 0.3926 | Array Heatmap value (peptide array signal) (TRIM66 (PB)): 0.525 | Array Heatmap value (peptide array signal) (KDM5B (3)): 0.4017 | Array Heatmap value (peptide array signal) (KDM5A (3)): 0.3558 | Array Heatmap value (peptide array signal) (AIRE (PP)): 0.3482 | Array Heatmap value (peptide array signal) (CHD5 (PCC)): 0.6269 | Array Heatmap value (peptide array signal) (MORC3 (CW)): 0.2832 | Array Heatmap value (peptide array signal) (PHF23): 0.4763 | Array Heatmap value (peptide array signal) (BPTF (PB)): 0.277 | Array Heatmap value (peptide array signal) (PHF13): 0.5013 | Array Heatmap value (peptide array signal) (DPF2 (PPC2W2)): 0.6037 | Array Heatmap value (peptide array signal) (RAG2): 0.2029 | Array Heatmap value (peptide array signal) (ING2): 0.5899 | Array Heatmap value (peptide array signal) (ING5): 0.2562 | Array Heatmap value (peptide array signal) (TAF3): 0.2134 | Array Heatmap value (peptide array signal) (CHD5 (PPCC)): 0.4173

Array Heatmap value (peptide array binding signal) (PHF8; PHF8, GST-tagged, arrays performed twice, n of 4): 0.4273 | Array Heatmap value (peptide array binding signal) (ING1; ING1, GST-tagged, arrays performed twice, n of 4): 0.6473 | Array Heatmap value (peptide array binding signal) (KDM5B (1); [1]): 0.6332 | Array Heatmap value (peptide array binding signal) (CHD4 (PPCC); [1]): 0.6385 | Array Heatmap value (peptide array binding signal) (PHF21A; [1]): 0.5236 | Array Heatmap value (peptide array binding signal) (KDM4C (TTP); [1]): 0.5708 | Array Heatmap value (peptide array binding signal) (SP140L; [1]): 0.3991 | Array Heatmap value (peptide array binding signal) (MLL5; MLL5, GST-tagged, arrays performed twice, n of 4): 0.6366 | Array Heatmap value (peptide array binding signal) (PHRF1 (RP); [1]): 0.5306 | Array Heatmap value (peptide array binding signal) (KDM7A; [1]): 0.4052 | Array Heatmap value (peptide array binding signal) (PHF2; PHF2, GST-tagged, arrays performed twice, n of 4): 0.6413 | Array Heatmap value (peptide array binding signal) (DIDO1; DIDO1, GST-tagged, arrays performed twice, n of 4): 0.8543 | Array Heatmap value (peptide array binding signal) (KDM5A (1); [1]): 0.5517 | Array Heatmap value (peptide array binding signal) (ING4; ING4, GST-tagged, arrays performed twice, n of 4): 0.5451 | Array Heatmap value (peptide array binding signal) (BAZ2B; [1]): 0.543 | Array Heatmap value (peptide array binding signal) (ING3; ING3, GST-tagged, arrays performed twice, n of 4): 0.5888 | Array Heatmap value (peptide array binding signal) (TRIM66 (PB); [1]): 0.6456 | Array Heatmap value (peptide array binding signal) (KDM5B (3); [1]): 0.5457 | Array Heatmap value (peptide array binding signal) (KDM5A (3); [1]): 0.517 | Array Heatmap value (peptide array binding signal) (AIRE (PP); [1]): 0.4948 | Array Heatmap value (peptide array binding signal) (CHD5 (PCC); [1]): 0.8576 | Array Heatmap value (peptide array binding signal) (MORC3 (CW); [1]): 0.4265 | Array Heatmap value (peptide array binding signal) (PHF23; PHF23, GST-tagged, arrays performed twice, n of 4): 0.6043 | Array Heatmap value (peptide array binding signal) (BPTF (PB); [1]): 0.4183 | Array Heatmap value (peptide array binding signal) (PHF13; PHF13, GST-tagged, arrays performed twice, n of 4): 0.7061 | Array Heatmap value (peptide array binding signal) (DPF2 (PPC2W2); [1]): 0.7706 | Array Heatmap value (peptide array binding signal) (RAG2; RAG2, GST-tagged, arrays performed twice, n of 4): 0.3031 | Array Heatmap value (peptide array binding signal) (ING2; ING2, GST-tagged, arrays performed twice, n of 4): 0.6422 | Array Heatmap value (peptide array binding signal) (ING5; ING5, GST-tagged, arrays performed twice, n of 4): 0.4376 | Array Heatmap value (peptide array binding signal) (TAF3; TAF3, GST-tagged, arrays performed twice, n of 4): 0.3308 | Array Heatmap value (peptide array binding signal) (CHD5 (PPCC); [1]): 0.6548
Substance: H4K5me1: H4 1-23 [Peptide H4K5me1]

Substance: H4K5proK8proK12pro: H4 1-23
Array Heatmap value (peptide array signal) (PHF8): 0.41 | Array Heatmap value (peptide array signal) (ING1): 0.5929 | Array Heatmap value (peptide array signal) (KDM5B (1)): 0.629 | Array Heatmap value (peptide array signal) (CHD4 (PPCC)): 0.656 | Array Heatmap value (peptide array signal) (PHF21A): 0.5432 | Array Heatmap value (peptide array signal) (KDM4C (TTP)): 0.5585 | Array Heatmap value (peptide array signal) (SP140L): 0.3966 | Array Heatmap value (peptide array signal) (MLL5): 0.612 | Array Heatmap value (peptide array signal) (PHRF1 (RP)): 0.4879 | Array Heatmap value (peptide array signal) (KDM7A): 0.3949 | Array Heatmap value (peptide array signal) (PHF2): 0.5444 | Array Heatmap value (peptide array signal) (DIDO1): 0.7693 | Array Heatmap value (peptide array signal) (KDM5A (1)): 0.5265 | Array Heatmap value (peptide array signal) (ING4): 0.5361 | Array Heatmap value (peptide array signal) (BAZ2B): 0.5476 | Array Heatmap value (peptide array signal) (ING3): 0.5538 | Array Heatmap value (peptide array signal) (TRIM66 (PB)): 0.6547 | Array Heatmap value (peptide array signal) (KDM5B (3)): 0.4906 | Array Heatmap value (peptide array signal) (KDM5A (3)): 0.4569 | Array Heatmap value (peptide array signal) (AIRE (PP)): 0.5223 | Array Heatmap value (peptide array signal) (CHD5 (PCC)): 0.8593 | Array Heatmap value (peptide array signal) (MORC3 (CW)): 0.3861 | Array Heatmap value (peptide array signal) (PHF23): 0.5776 | Array Heatmap value (peptide array signal) (BPTF (PB)): 0.4022 | Array Heatmap value (peptide array signal) (PHF13): 0.7138 | Array Heatmap value (peptide array signal) (DPF2 (PPC2W2)): 0.725 | Array Heatmap value (peptide array signal) (RAG2): 0.2779 | Array Heatmap value (peptide array signal) (ING2): 0.6246 | Array Heatmap value (peptide array signal) (ING5): 0.4117 | Array Heatmap value (peptide array signal) (TAF3): 0.2924 | Array Heatmap value (peptide array signal) (CHD5 (PPCC)): 0.65
